Assay results from ChEMBL document CHEMBL1201862, “PubChem BioAssay data set” (2004).
The source made the active and inactive calls.

What was measured:
[1] = Luminescence Cell-Based Dose Confirmation HTS to Identify Inhibitors of Platelet Dense Granule Release. [Related pubchem assays: 1663 (Primary HTS), 1678 (Summary of Project)]; format: functional
[2] = biological target: Luciferin 4-monooxygenase (Photinus pyralis, UniProt P08659); assay: firefly luciferase enzyme inhibitors, dose response, biochemical, luminescence (AID 1891)
[3] = biological target: T1, Calpain-2 catalytic subunit (Sus scrofa, UniProt P43367); assay: pig calpain II inhibitor potency, dose response, biochemical, fluorogenic peptide substrate (AID 1420); format: functional
T1 sequence (P43367 whole entry): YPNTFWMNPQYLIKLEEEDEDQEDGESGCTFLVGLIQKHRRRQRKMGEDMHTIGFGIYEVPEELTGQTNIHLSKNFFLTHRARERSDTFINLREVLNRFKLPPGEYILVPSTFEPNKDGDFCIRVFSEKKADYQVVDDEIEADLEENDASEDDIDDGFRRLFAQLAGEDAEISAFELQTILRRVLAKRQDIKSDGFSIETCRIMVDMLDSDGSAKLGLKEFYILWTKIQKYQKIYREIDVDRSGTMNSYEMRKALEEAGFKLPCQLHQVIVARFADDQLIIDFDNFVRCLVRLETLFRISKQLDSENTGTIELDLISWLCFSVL

[4] = Shn3 3'UTR reporter inhibitors, dose response, cell-based, Clone20 osteoblasts, firefly luciferase, cherry-picked (AID 624132); format: functional;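 further: firefly luciferase luminescence from reporter carrying the Shn3 3'UTR in osteoblasts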
[5] = biological target: T2, Protein skinhead-1 (Caenorhabditis elegans, UniProt P34707); format: functional
T2 sequence (P34707 whole entry): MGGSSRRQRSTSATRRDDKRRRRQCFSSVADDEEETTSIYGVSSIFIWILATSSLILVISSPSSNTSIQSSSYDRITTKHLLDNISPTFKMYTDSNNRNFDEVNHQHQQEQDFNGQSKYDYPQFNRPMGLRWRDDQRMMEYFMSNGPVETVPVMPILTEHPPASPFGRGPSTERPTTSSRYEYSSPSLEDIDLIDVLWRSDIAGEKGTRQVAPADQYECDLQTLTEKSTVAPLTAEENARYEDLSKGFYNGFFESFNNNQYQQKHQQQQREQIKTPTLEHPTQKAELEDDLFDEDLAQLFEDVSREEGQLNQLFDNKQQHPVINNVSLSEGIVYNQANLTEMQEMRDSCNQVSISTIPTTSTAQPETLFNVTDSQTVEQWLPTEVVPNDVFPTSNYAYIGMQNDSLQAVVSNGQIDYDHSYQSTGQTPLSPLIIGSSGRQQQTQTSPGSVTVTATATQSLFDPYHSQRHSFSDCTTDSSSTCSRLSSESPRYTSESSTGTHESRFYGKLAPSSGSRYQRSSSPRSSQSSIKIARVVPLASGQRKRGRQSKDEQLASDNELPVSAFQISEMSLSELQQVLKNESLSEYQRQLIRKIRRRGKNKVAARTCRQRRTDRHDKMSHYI

[6] = biological target: T3, Streptokinase A (Streptococcus pyogenes serotype M1, UniProt P10520); assay: S. pyogenes streptokinase expression inhibitors, potency, dose response, plasminogen activation absorbance, OD405 (AID 1914); format: functional, Streptococcus pyogenes M1 GAS;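 further: secreted streptokinase activity via plasminogen activation per viability signal from cell pellet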
T3 sequence (P10520 whole entry): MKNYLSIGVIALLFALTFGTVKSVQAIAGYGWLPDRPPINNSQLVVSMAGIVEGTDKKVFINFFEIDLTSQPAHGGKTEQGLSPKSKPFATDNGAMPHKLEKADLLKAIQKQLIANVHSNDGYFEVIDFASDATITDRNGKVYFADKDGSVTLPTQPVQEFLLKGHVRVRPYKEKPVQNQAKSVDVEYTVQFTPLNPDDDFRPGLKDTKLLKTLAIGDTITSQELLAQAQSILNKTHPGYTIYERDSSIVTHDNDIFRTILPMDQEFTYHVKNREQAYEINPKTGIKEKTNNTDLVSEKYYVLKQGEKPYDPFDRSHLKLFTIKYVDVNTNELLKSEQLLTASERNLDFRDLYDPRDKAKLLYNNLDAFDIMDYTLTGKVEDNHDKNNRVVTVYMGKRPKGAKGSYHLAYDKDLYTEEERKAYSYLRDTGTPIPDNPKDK

[7] = test system: Streptococcus sp. 'group A'; assay: growth inhibition of control SK(-) GAS strain, dose response, counter-screen for streptokinase expression inhibitor project, luminescence, kanamycin, BacTiterGlo, confirmation (AID 1900); format: functional, organism-based
[8] = test system: Streptococcus; assay: Group A Streptococcus viability loss, dose response, counter-screen for streptokinase expression inhibitor project, luminescence, BacTiterGlo (AID 1915); format: functional, organism-based;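 further: potency for reduction of bacterial viability or growth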
[9] = cells; format: functional
[10] = biological target: T4, Corticotropin-releasing factor receptor 2/Corticotropin-releasing factor-binding protein (Homo sapiens, UniProt P24387+Q13324); assay: activators of CRF receptor 2 with binding protein – uHTS hits, confirmation (AID 602473); format: functional; conditions: read-out: EC50_Mean
T4 sequence (Q13324 whole entry): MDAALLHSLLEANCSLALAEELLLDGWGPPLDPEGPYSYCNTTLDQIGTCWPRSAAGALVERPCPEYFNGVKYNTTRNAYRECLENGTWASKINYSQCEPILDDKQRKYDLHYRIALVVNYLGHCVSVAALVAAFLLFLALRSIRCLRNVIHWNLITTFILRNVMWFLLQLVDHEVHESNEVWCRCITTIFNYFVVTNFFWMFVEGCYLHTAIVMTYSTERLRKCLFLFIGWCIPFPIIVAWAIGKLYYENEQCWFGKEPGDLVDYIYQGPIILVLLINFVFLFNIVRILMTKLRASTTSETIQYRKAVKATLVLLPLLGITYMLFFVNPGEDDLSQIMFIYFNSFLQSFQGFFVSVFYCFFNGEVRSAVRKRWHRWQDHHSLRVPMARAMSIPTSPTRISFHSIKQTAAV
T4 sequence (P24387 whole entry): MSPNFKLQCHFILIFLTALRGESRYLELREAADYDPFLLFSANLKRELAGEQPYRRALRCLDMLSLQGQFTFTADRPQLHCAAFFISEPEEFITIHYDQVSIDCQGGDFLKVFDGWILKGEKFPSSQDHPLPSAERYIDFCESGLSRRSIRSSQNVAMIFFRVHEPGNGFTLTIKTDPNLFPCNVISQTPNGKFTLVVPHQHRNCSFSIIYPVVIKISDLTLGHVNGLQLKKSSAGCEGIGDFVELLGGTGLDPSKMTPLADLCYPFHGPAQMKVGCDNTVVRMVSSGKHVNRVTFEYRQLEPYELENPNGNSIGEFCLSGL

[11] = biological target: Cytochrome P450 3A4 (Homo sapiens, UniProt P08684);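 further: CYP3A4 tested as one member of a cytochrome P450 panel screen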
[12] = biological target: Cytochrome P450 2C19 (Homo sapiens, UniProt P33261); assay: Cytochrome panel assay with activity outcomes. Panel member name: p450-cyp2c19 Compounds with AC50 equal or less than 10 uM are considered active; format: functional
[13] = biological target: Cytochrome P450 2D6 (Homo sapiens, UniProt P10635);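 further: CYP2D6 member of a cytochrome P450 panel assay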
[14] = Luminescence Cell-Based Dose Retest to Confirm Inhibitors of Cancer Stem Cells. [Related pubchem assays (depositor defined):AID2717, AID2721]; format: functional; conditions: Homo sapiens
[15] = biological target: T5, Cytochrome P450 1A2 (Homo sapiens, UniProt P05177);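 further: PubChem cytochrome P450 panel assay, CYP1A2 panel member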
T5 sequence (P05177 whole entry): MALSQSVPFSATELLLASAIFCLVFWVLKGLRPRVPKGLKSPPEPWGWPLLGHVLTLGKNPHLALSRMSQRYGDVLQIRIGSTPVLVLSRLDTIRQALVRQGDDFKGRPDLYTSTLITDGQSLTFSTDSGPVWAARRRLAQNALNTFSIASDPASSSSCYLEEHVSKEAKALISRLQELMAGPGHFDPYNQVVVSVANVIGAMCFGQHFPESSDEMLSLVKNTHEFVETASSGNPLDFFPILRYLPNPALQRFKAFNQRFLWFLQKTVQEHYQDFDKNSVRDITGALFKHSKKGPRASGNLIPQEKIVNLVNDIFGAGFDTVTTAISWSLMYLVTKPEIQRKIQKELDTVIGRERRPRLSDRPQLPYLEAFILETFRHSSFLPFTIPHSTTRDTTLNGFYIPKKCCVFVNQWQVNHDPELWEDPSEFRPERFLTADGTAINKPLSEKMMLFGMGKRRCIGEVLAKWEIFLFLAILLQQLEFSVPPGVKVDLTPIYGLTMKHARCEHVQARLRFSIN

Sequence of Cytochrome P450 2D6 (P10635 whole entry): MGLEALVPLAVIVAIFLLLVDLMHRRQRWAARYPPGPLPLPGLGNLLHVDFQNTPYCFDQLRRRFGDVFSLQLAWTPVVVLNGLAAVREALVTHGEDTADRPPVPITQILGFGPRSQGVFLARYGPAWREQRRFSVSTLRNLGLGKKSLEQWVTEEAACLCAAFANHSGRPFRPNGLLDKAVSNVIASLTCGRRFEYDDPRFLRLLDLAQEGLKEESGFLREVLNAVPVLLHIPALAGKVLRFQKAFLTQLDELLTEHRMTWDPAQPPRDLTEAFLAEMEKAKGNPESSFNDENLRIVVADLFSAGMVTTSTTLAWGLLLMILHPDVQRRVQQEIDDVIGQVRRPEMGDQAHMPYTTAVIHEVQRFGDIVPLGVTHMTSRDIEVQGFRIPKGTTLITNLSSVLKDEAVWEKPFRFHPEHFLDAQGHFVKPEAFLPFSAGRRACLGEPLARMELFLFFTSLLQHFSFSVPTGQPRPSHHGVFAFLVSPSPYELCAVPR
Sequence of Luciferin 4-monooxygenase (P08659 whole entry): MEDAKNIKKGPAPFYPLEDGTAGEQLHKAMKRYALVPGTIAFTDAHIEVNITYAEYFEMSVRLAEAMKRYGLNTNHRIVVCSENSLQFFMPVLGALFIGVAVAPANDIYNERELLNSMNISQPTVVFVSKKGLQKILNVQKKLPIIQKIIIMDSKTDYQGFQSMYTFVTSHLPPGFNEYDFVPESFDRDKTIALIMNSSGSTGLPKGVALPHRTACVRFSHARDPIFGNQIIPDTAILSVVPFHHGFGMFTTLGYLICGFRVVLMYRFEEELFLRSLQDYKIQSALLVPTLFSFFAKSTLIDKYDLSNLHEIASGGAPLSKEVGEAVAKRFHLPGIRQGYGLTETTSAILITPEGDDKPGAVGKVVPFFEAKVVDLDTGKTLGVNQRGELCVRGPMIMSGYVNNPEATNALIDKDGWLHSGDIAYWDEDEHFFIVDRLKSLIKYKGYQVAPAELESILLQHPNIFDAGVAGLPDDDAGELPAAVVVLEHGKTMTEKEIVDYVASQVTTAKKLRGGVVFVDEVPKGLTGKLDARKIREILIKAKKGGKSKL
Sequence of Cytochrome P450 3A4 (P08684 whole entry): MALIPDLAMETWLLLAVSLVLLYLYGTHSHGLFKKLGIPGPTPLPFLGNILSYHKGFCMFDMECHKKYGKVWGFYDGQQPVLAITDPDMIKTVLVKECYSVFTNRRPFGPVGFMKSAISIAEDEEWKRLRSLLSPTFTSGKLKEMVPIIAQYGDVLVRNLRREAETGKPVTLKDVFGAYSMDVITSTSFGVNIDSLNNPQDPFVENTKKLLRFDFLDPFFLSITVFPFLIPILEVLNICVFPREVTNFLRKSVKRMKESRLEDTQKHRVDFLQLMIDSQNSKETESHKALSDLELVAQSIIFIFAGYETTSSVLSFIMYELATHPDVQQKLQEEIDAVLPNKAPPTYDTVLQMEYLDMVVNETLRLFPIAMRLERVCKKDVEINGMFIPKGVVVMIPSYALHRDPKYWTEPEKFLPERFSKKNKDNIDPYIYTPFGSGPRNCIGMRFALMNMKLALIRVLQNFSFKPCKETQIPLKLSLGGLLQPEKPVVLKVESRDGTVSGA
Sequence of Cytochrome P450 2C19 (P33261 whole entry): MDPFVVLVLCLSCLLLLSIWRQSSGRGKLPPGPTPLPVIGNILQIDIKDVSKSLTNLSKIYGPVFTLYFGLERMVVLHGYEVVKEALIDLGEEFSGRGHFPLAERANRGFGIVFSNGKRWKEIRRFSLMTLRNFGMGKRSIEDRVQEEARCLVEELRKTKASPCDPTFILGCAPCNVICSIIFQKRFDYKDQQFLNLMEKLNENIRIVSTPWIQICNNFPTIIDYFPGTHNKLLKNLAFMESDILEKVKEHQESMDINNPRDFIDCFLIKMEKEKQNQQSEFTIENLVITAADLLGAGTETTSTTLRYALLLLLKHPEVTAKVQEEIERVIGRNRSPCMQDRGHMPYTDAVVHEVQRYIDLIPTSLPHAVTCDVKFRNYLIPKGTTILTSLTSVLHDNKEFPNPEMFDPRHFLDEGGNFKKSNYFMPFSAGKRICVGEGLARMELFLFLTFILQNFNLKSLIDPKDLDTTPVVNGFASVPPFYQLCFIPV

O=C(NC1CCCCC1)N1CCC(c2nc(-c3ccc(S(=O)(=O)N4CCCC4)cc3)no2)CC1
EC50 [1]: > 112 µM (not active)
EC50 [2]: > 112 µM (not active)

CC(/C=C(\O)c1ccc(C)cc1)=N\c1cccc(O)c1
IC50 [3]: 4.68 µM (not active)

Cc1ccc(C)c(N2CCN(S(=O)(=O)c3ccc4nc(O)ccc4c3)CC2)c1
AC50 [4]: 24.2 µM (active)

CNC(=O)c1c(NC(=O)c2ccc(N3C(=O)CCC3=O)cc2)sc2c1CCC(C)C2 (centres undefined)
IC50 [5]: > 100 µM (inactive)
EC50 [6]: > 150 µM (not active)
EC50 [7]: 20.7 µM (active)
EC50 [8]: 103 µM (active)

Cc1ccc2nc(C)c3c(c2c1)COC3
IC50 [9]: > 50 µM (active)

O=c1c2ccccc2ncn1-c1ccc(Cl)cc1Cl
IC50 [5]: > 100 µM (inactive)

Cc1ccc(/C=C2/C(=O)NC(=O)N(CCc3ccc(F)cc3)C2=O)s1
IC50 [9]: 39.2 µM (active)

NS(=O)(=O)c1ccc(CCNC(=O)COC(=O)CCc2c[nH]c3ccccc23)cc1
EC50 [10]: 22 µM (active)

Cc1ccccc1C(=O)NC(CC(C)C)C(=O)Nc1ccc(S(N)(=O)=O)cc1 (centres undefined)
EC50 [1]: > 112 µM (not active)
EC50 [2]: > 112 µM (not active)

Cc1c(Cl)cccc1NC(=O)CC1NCCNC1=O (centres undefined)
IC50 [5]: > 100 µM (inactive)
AC50 [11]: 20 µM (inconclusive)
AC50 ([12]; read-out: AC50): 39.8 µM (inconclusive)

Cc1ccc(NC(=O)CSc2nsc(SCC(=O)Nc3ccc(C)cc3C)c2C#N)c(C)c1
IC50 [3]: > 50 µM (not active)

CSc1nnc(C)c(/C=C/Nc2ccc(C)cc2)n1
EC50 [10]: 14.9 µM (active)

CCn1nc(CCC(=O)O)c2ccccc2c1=O
IC50 [5]: > 100 µM (inactive)

COc1ccc(C(NC(=O)c2ccc(-c3ccccc3)cc2)c2ccccc2)cc1 (centres undefined)
IC50 [3]: > 50 µM (not active)

O=C(N/N=C/c1cccnc1)c1ccc([N+](=O)[O-])cc1
AC50 [13]: 14.1 µM (inconclusive)

Clc1ccc(CNc2ccc3nnc(-c4ccccc4)n3n2)cc1
EC50 [1]: > 112 µM (not active)
EC50 [2]: > 112 µM (not active)

O=c1cc(N2CCCCC2)c(-c2ccccc2)nn1Cc1cccc(F)c1
AC50 [14]: 4.74 µM (active)
IC50 [3]: > 50 µM (not active)

O=C(CCCCl)Oc1ccc2cc(-c3ccc4ccccc4n3)c(=O)oc2c1
EC50 [10]: 13.7 µM (active)

CCCN1CCc2cccc3c2[C@@H]1Cc1ccc(O)c(O)c1-3
AC50 [13]: 10 µM (inconclusive)
AC50 [11]: 12.6 µM (inconclusive)

COc1ccc(C2=Nc3cccc4cccc(c34)N2)cc1
AC50 [13]: 1.41 µM (inconclusive)

O=C(O)[C@@H]1[C@@H]2C[C@H]3c4[nH]c5ccccc5c4CCN3C[C@@H]2CC[C@@H]1O
AC50 [13]: 7.94 µM (inconclusive)
AC50 [15]: 12.6 µM (inconclusive)

CC1(C)N=C(N)N=C(N)N1c1cccc(OCc2cccc([N+](=O)[O-])c2)c1
AC50 [13]: 3.16 µM (inconclusive)
AC50 [15]: 5.01 µM (inconclusive)
AC50 [12]: inconclusive

CC(C)c1onc(C(=O)Nc2cccnc2Cl)c1[N+](=O)[O-]
IC50 [3]: 22.5 µM (not active)

O=C(CCN1CCC(c2ccccc2)C1)c1ccccc1 (centres undefined)
IC50 [9]: 31.7 µM (active)

O=C(NCCCN1CCOCC1)C1(c2ccccc2)CCCC1
EC50 [1]: > 112 µM (not active)
EC50 [2]: > 112 µM (not active)

Cc1ccc(CNC(=O)c2ccc3c(=O)n(CC4CCCO4)c(=S)[nH]c3c2)cc1 (centres undefined)
IC50 [3]: 1.19 µM (not active)

COc1ccc(/C=N/N=C(\N)c2nonc2N)cc1
EC50 [1]: 2.67 µM (active)
EC50 [2]: 3.82 µM (active)

Cc1cc(/C=C(\C#N)C(=O)Nc2ccc(F)cc2)c(C)n1-c1ccc(N2CCOCC2)c([N+](=O)[O-])c1
IC50 [5]: > 100 µM (inactive)

COC(=O)c1cc2sccc2n1Cc1ccc(C)cc1
IC50 [5]: > 100 µM (inactive)

O=C(c1ccc(F)cc1)c1cc2ccc(O)cc2oc1=O
EC50 [1]: 0.457 µM (active)
EC50 [7]: 10.7 µM (active)
EC50 [2]: 0.731 µM (active)
EC50 [8]: 15.7 µM (active)

CN(C)c1ccc(-c2cncnc2NCc2cccs2)cc1
AC50 [13]: 39.8 µM (inconclusive)

COc1ccc2[nH]cc(CCNc3ncnc4ccc(-c5ccc(C(=O)N(C)C)cc5)cc34)c2c1
AC50 [13]: 25.1 µM (inconclusive)
AC50 [15]: 12.6 µM (inconclusive)

CN(CCc1ccccn1)C(=S)NC(=O)c1ccco1
IC50 [3]: 19 µM (not active)

CSc1nc2c(c(-c3ccc(O)cc3)c1C#N)CCC2
EC50 [1]: > 112 µM (not active)
EC50 [2]: > 112 µM (not active)

CCOc1ccc(Nc2ccc([N+](=O)[O-])c3nonc23)cc1
IC50 [5]: > 100 µM (inactive)
IC50 [9]: 5.59 µM (active)

O=S(=O)(Nc1ccc(-c2ccc3nncn3n2)cc1)c1ccccc1Cl
EC50 [1]: 51.9 µM (active)
EC50 [2]: > 112 µM (not active)

CCN(CC(=O)NCc1ccc(F)cc1)Cc1nc(O)c2ccc(Cl)cc2n1
IC50 [5]: > 100 µM (inactive)
